According to patent US20250380700A1, “HERBICIDAL COMBINATIONS AND A METHOD FOR CONTROLLING UNDESIRED VEGETATION” (UPL Mauritius Limited, priority 2022, published 2025):

System: weedy Glycine max
Test: Post-emergence herbicidal activity trial on weedy Glycine max (observed efficacy vs Colby expected efficacy)
Type: in vivo
Description: Methodology: Trials were conducted to evaluate the efficacy of the combination comprising L-glufosinate ammonium and additional herbicides on weedy Glycine max.
The soil used was sandy clay loam-sand: 68.0%; silt: 8.0%; clay: 24.0%.
All treatments were in 3 replications per treatment with a spray volume of about 150 L/ha.
The expected efficacy of a combination of L-glufosinate ammonium and the other herbicides was calculated using the well-established Colby method. Any difference between the observed and “expected” efficacy could be attributed to synergy between the two compounds.
In the Colby method, the expected (or predicted) response of a combination of herbicides is calculated by taking the product of the observed response for each individual component of the combination when applied alone, divided by 100, and subtracting this value from the sum of the observed response for each component when applied alone. An unexpected enhancement in efficacy of the combination is then determined by comparing the observed response of the combination to the expected (or predicted) response as calculated from the observed response of each individual component alone. If the observed response of the combination is greater than the expected (or predicted) response, or stated conversely, if the difference between the observed and expected response is greater than zero, then the combination is said to be synergistic or unexpectedly effective (Colby, S. R., Weeds, 1967(15), p. 20-22). The Colby method requires only a single dose of each herbicide applied alone and the mixture of both doses. The formula used to calculate the expected efficacy (EE) which was compared with the observed efficacy (OE) to determine the efficacy of the present disclosure is explained hereinbelow:
The expected efficacy for a combination of two active ingredients is as follows:
The expected efficacy for a combination of three active ingredients is as follows:
wherein, • A=Observed efficacy of active ingredient A at the same concentration as used in the mixture. • B=Observed efficacy of the active ingredient B at the same concentration as used in the mixture. • C=Observed efficacy of the active ingredient C at the same concentration as used in the mixture.

O=C(O)COc1ccc(Cl)cc1Cl [2,4-D]
Observed efficacy (%) of 2,4-D (228 g a.i./ha) (Example 3, Table 4, 3 DAA): 50% | Observed efficacy (%) of 2,4-D (228 g a.i./ha) (Example 3, Table 4, 7 DAA): 60%

CP(=O)(O)CC[C@H](N)C(=O)O.N [L-glufosinate ammonium]
Observed efficacy (%) of L-glufosinate ammonium (150 g a.i./ha) (Example 1, Table 2, 3 DAA, post-emergence): 65% | Observed efficacy (%) of L-glufosinate ammonium (150 g a.i./ha) (Example 1, Table 2, 7 DAA, post-emergence): 65% | Observed efficacy (%) of L-glufosinate ammonium (150 g a.i./ha) (Example 2, Table 3, 3 DAA): 50% | Observed efficacy (%) of L-glufosinate ammonium (150 g a.i./ha) (Example 2, Table 3, 7 DAA): 65% | Observed efficacy (%) of L-glufosinate ammonium (150 g a.i./ha) (Example 3, Table 4, 3 DAA): 50% | Observed efficacy (%) of L-glufosinate ammonium (150 g a.i./ha) (Example 3, Table 4, 7 DAA): 75%

CC(C)N(C)S(=O)(=O)NC(=O)c1cc(-n2c(=O)cc(C(F)(F)F)n(C)c2=O)c(F)cc1Cl [Saflufenacil]
Observed efficacy (%) of Saflufenacil (30 g a.i./ha) (Example 1, Table 2, 3 DAA): 50% | Observed efficacy (%) of Saflufenacil (30 g a.i./ha) (Example 1, Table 2, 7 DAA): 70% | Observed efficacy (%) of Saflufenacil (30 g a.i./ha) (Example 2, Table 3, 3 DAA): 65% | Observed efficacy (%) of Saflufenacil (30 g a.i./ha) (Example 2, Table 3, 7 DAA): 70% | Observed efficacy (%) of Saflufenacil (30 g a.i./ha) (Example 3, Table 4, 3 DAA): 65% | Observed efficacy (%) of Saflufenacil (30 g a.i./ha) (Example 3, Table 4, 7 DAA): 75%

O=C(O)COc1nc(Cl)c(Cl)cc1Cl [Triclopyr]
Observed efficacy (%) of Triclopyr (228 g a.i./ha) (Example 2, Table 3, 3 DAA): 75% | Observed efficacy (%) of Triclopyr (228 g a.i./ha) (Example 2, Table 3, 7 DAA): 68%
